In patent publication EP4458804A1, “METHOD FOR PRODUCING AN OBJECT, PHENALEN-1-ONE COMPOUND AND USE THEREOF” (TriOptoTec GmbH, priority 2023, dated 2024):

Columns and labels:
[1] = Incorporation of photocatalysts into TPU films versus process time, absorption spectroscopy against blank film (Beispiele 7a-9b); assay type: physicochemical; conditions: Rezeptur 1
Protocol: Im nächsten Schritt wurde die Verwendbarkeit der verschiedene Photokatalysatorklassen, ausgewählt aus Phenalen-1-on-Derivaten, Curcumin-Derivaten und Porphycen-Derivaten, mit unterschiedlichen Eigenschaften - von neutral unpolar bis ionisch polar - auf Ihre Verwendbarkeit und Wirkung im Verfahren untersucht.
Zur Beurteilung der optimalen Prozesszeit bei Einsatz der Photokatalysatoren, wurden TPU Folienstücke nach Beschreibung in Beispiel 4 zu je 1, 2, 5 und 10 min in den Imprägnierlösungen behandelt, gegebenenfalls auch 30 und 60 min bei undeutlichen Ergebnissen.
Als Basisformulierung wurde Rezeptur 1 nach Beispiel 2 verwendet.
Nach der angegebenen Prozesszeit wurden die Folie entnommen, mit Wasser gewaschen und für 1h bei 40°C getrocknet/abgelüftet.
Die Folien wurden durch Absorptionsspektroskopie gegen ein Blank-Folienstück direkt vermessen, beim Maximum der Absorption des Photokatalysators. Dabei ergaben sich in Abhängigkeit der Prozesszeit folgende Werte, die in den Tabellen 40 bis

[2] = Leaching test A: screening immersion 24 h, UV-VIS of supernatant (Beispiel 10 A); assay type: physicochemical; parameters: Abs. nach Auswaschen: unit not given here; conditions: medium Wasser; for Berechneter Verlust in %: Rezeptur 1 nach Beispiel 1; for Abs. nach Auswaschen: Rezeptur 1 nach Beispiel 1, supernatant
Protocol: Um das Auswaschen der verschiedenen Farbstoffe in den Kunststofffolien zu beurteilen, wurde ein Immersionstest in deionisiertem Wasser mit einem pH-Wert von (6 ± 1) (oder gegebenenfalls anderen Lösungsmitteln) und einer Wassertemperatur von (22 ± 3) °C für 24 Stunden durchgeführt.
Dazu wurde ein Folienstück definierter Größe (3 cm x 3 cm) imprägniert (nach Rezeptur 1, Beispiel 1) und anschließend für 24 Stunden in eine definierte Menge deionisiertem Wasser (12,0 mL) gegeben und durch eine Schüttelplatte in Bewegung gehalten. Nach der angegeben Immersionszeit wurde die Folie entnommen und der Überschuss im UV-VIS Spektrometer vermessen, um die ausgewaschene Menge an Farbstoff zu bestimmen. Die Menge wird durch die definierte Größe der Folie und definierte Flüssigkeitsmenge auf einen Quadratzentimeter zurückgerechnet.
Dieser Immersionstest diente dazu, das Auswaschverhalten verschiedener Farbstoffe aus verschiedenen Kunststofffolien zu beurteilen. Weiter sollte er dabei helfen, verschiedene Farbstoffklassen oder verschiedene Farbstoffderivate einer Farbstoffklasse bezüglich dieser Charakteristik miteinander zu vergleichen.
Die zugeschnittenen Folien werden in einem geeigneten Behälter vollständig mit dem Prüfmedium (typischerweise deionisiertes Wasser) bedeckt. Anschließend wird der Behälter zugedeckt und auf die Schüttelplatte aufgebracht. Bei geringer Geschwindigkeit der Platte wird für 24 Stunden gewartet. Nach der Immersion wurden 3 mL des Überstandes durch Absorptionsspektroskopie vermessen.
Die Auswertung erfolgte über das Verhältnis der max. Absorptionswerte einer reinen Farbstofflösung definierter Konzentration und des vermessenen Überstandes. Die Ergebnisse sind in Tabelle 50 dargestellt. Tabelle 50: Auswaschverhalten verschiedener Photokatalysatoren nach Immersionstest A

[3] = Two-component system (kit of parts): impregnation of TPU films, visual colouring and resistance to rubbing/washing (Beispiel 6a/6b); assay type: physicochemical; conditions: TPU Folien; for Abreiben / Auswaschen der Färbung: feuchter Schwamm, Wasser
Source text: Um eine Mehrkomponenten-System bereitzustellen, bei dem vorzugsweise flüchtigere Hilfskomponenten, die gegebenenfalls regelmäßiger im Prozess ergänzt werden müssen, in einer separaten Komponente bereitgestellt werden können, wurde zunächst folgendes 2K-System getestet.
Grundkomponente (A): Eine Mischung aus 40,0% w/w Aceton, 30,0% w/w Isopropanol und […] w/w Wasser wurden homogen vermengt. Die Mischung war dicht verschlossen > 12 Monate bei Raumtemperatur lagerbar.
Zusatzkomponente (B): Eine Mischung aus 3,0% w/w Phenoxyethanol, 3,0% w/w EDTA und 0,1 bis 2,0 % Photokatalysator in Wasser wurden homogen verrührt. Die Mischung war dicht verschlossen in dunklen Flaschen > 6 Monate bei Raumtemperatur lagerbar.
Beide Lösungen wurden vor dem Prozess zu gleichen Teilen gemischt, gefolgt von einer 1:5 Verdünnung mit Wasser. Nach guter Durchmischung war die Lösung gebrauchsfertig.
Bei F-64a und F-73 war eine schwache Gelb- bzw.
Grundkomponente (A) enthielt eine Mischung aus 30,0% w/w Dimethylsuccinat, 33,0% w/w 1,2-Propandiol, 12,0% w/w Tween 20 und 25,0 % Wasser.
Zusatzkomponente (B) enthielt eine Mischung aus 2,0 Gew.-% Phenoxyethanol, 2,0 Gew.-% EDTA und 0,1 Gew.-% bis 1,6 Gew.-% Photokatalysator, jeweils bezogen auf das Gesamtgewicht der Zusatzkomponente (B), wobei die entsprechenden Bestandteile in Wasser gelöst wurden und anschließend homogen verrührt wurden.
Die Komponenten wurden vor Gebrauch im Verhältnis A zu B 2:1 gemischt, gefolgt von einer 1:1 Verdünnung mit Wasser. Nach guter Durchmischung war die Lösung gebrauchsfertig.

[4] = Comparative examples 23-25: impregnation of unsuitable plastics or with a fluorescent dye, visual evaluation; assay type: physicochemical
Protocol: Die Farbstoffkonzentration in der Imprägnierlösung betrug jeweils 1 mM bei Phenalen-1-on- und Curcuminderivaten, 0,1 mM bei Prophycenderivaten.
Es wurden 0,2 mm starke Polycarbonatfolien eingesetzt und mit Imprägnierlösungen enthaltend die Photokatalysatoren F-24b, F-64a oder F-73 behandelt.
Es wurden TPU Folien eingesetzt und mit einer Imprägnierlösung enthaltend den Farbstoff 2-Chloro-6-(3-hydroxypropylamino)-1-phenalenon (CAS 113722-81-9) behandelt.

S.aureus ATCC 6538 [5] = assay: Antibacterial activity of impregnated films, modified ISO 22196 with illumination (Beispiele 11-16, 25); assay type: cell-based; conditions: Beispiel 14; TPU film; Rezeptur 1 (nach Beispiel 1); 1 mM photocatalyst in impregnation solution; light 20mW/cm2 10min
S.aureus ATCC 6538 [6] = assay: as above; assay type: cell-based
Source text: Die Bestimmung der antimikrobiellen Aktivität erfolgte nach einer modifizierten Version der ISO 22196:2011-08 ("Messung von antibakterieller Aktivität auf Kunststoff- und anderen porenfreien Oberflächen", Ausgabedatum: 2011-08).
Bei der Testdurchführung wurde ein dünner Flüssigkeitsfilm, in dem die Bakterien enthalten sind (1,25 x 10^4 /cm^2), direkt auf die Probenkörper (3 x 3 cm) aufgebracht. Direkt nach Beimpfung wurden von der Nullprobe die Bakterien von den Probenkörperoberflächen mittels Ultraschall und Vortexen abgelöst und die Keimzahl (KBE (engl. CFU), Kolonie-bildende Einheit) bestimmt (t0-Wert).
Nach 4h wurden überlebende Bakterien von den Probenkörperoberflächen mittels Ultraschall und Vortexen abgelöst und die Keimzahl bestimmt (t4-Wert).
Im Unterschied zu der in der ISO 22196:2011-08 beschreibenen Methode wurde das Inokulum nicht mit einer Folie abgedeckt und die Inkubationszeit wurde von 24 auf 4 Stunden reduziert. Weiterhin wurden die Probenkörper der Proben 3 und 4 mit Licht der Intensität 20mW/cm2 für 10min belichtet, um eine biozide Wirkung nach Bestrahlung mit elektromagnetischer Strahlung zu bestimmen.
Verwendet wurden TPU Folienstücke, die nach dem in Beispiel 4 beschriebenen Verfahren mit Rezeptur 1 behandelt wurden. Rezeptur 1 wurde hergestellt nach Beispiel 2. […] Der Test wurde in Anlehnung an ISO 22196 nach oben beschriebener Methode durchgeführt.
TPU-Folienstücke wurden ebenfalls nach dem in Beispiel 4 beschriebenen Verfahren mit verschiedenen Rezepturen behandelt, die gemäß Beispiel 2 hergestellt wurden. Die Farbstoffkonzentration in der Imprägnierlösung betrug jeweils 1 mM F-24b. Der Test wurde in Anlehnung an ISO 22196 nach oben beschriebener Methode durchgeführt.
Die Farbstoffkonzentration in der Imprägnierlösung betrug jeweils 1 mM.
Die Photokatalysator-Konzentration von F-24b wurde variiert.
Es wurde ein Bakterientest in Anlehnung an ISO 22196 nach oben beschriebener Methode durchgeführt.

[7] = Beispiel 9a neutral Porphycenderivate mit Hydroxyfunktion, TPU film, process time 10 min
[8] = TPU Folie, Beispiel 7d, Tabelle 43
[9] = Beispiel 7a neutral Phenalen-1-one, TPU film, process time 1 min, absorption at photocatalyst maximum vs blank film
[10] = Beispiel 7a neutral Phenalen-1-one, TPU film, process time 2 min
[11] = Beispiel 7a neutral Phenalen-1-one, TPU film, process time 5 min
[12] = Beispiel 7a neutral Phenalen-1-one, TPU film, process time 10 min
[13] = TPU Folie, Beispiel 8a, Tabelle 44

COCCC1=Cc2nc1ccc1[nH]c(cc1CCOC)c1nc(c(OC)cc3[nH]c2cc3CCOC)C(CCOC)=C1 [F-68]
Abs. 10 min [1, 7]: 1,01
Abs. 30 min ([1]; Beispiel 9a neutral Porphycenderivate mit Hydroxyfunktion, TPU film, process time 30 min): >1
Abs. 60 min ([1]; Beispiel 9a neutral Porphycenderivate mit Hydroxyfunktion, TPU film, process time 60 min): >1

CCOC1=CC(=O)c2cccc3cccc1c23 [F-02]
Abs. 1 min [1, 8]: 0,125
Abs. 2 min [1, 8]: 0,229
Abs. 5 min [1, 8]: 0,475
Abs. 10 min [1, 8]: 0,590
Berechneter Verlust in % ([2]; plastic Surlyn): 2,7%
Abs. nach Auswaschen ([2]; plastic Surlyn): 0,009

9-Acetoxy-2,7,12,17-tetra-(beta-methoxyethyl)porphycen [F-66]
Abs. 1 min ([1]; Beispiel 9a, TPU film, process time 1 min, used as 0,1 mM Lösung): 0,008
Abs. 2 min ([1]; Beispiel 9a, TPU film, process time 2 min, used as 0,1 mM Lösung): 0,020
Abs. 5 min ([1]; Beispiel 9a, TPU film, process time 5 min, used as 0,1 mM Lösung): 0,044
Abs. 10 min ([1]; Beispiel 9a, TPU film, process time 10 min, used as 0,1 mM Lösung): 0,058
Berechneter Verlust in % ([2]; plastic TPU): 2,0%
Abs. nach Auswaschen ([2]; plastic TPU): 0,021

NCCCOc1ccc2cccc3c2c1C(=O)C=C3 [F-10]
Abs. 1 min [1, 9]: 0,044
Abs. 2 min [1, 10]: 0,011
Abs. 5 min [1, 11]: 0,062
Abs. 10 min [1, 12]: 0,087

COCCC1=Cc2nc1ccc1[nH]c(cc1CCOC)c1nc(c(OCCCN)cc3[nH]c2cc3CCOC)C(CCOC)=C1 [F-71]
Abs. 1 min ([1]; Beispiel 9a neutral Porphycenderivate mit Hydroxyfunktion, TPU film, process time 1 min): 0
Abs. 2 min ([1]; Beispiel 9a neutral Porphycenderivate mit Hydroxyfunktion, TPU film, process time 2 min): 0
Abs. 5 min ([1]; Beispiel 9a neutral Porphycenderivate mit Hydroxyfunktion, TPU film, process time 5 min): 0,032
Abs. 10 min [1, 7]: 0,04
Abs. 10 min ([1]; Beispiel 9b cationic Porphycenderivate, TPU film, process time 10 min): 0,023
Abs. 30 min ([1]; Beispiel 9b cationic Porphycenderivate, TPU film, process time 30 min): 0,062
Abs. 60 min ([1]; Beispiel 9b cationic Porphycenderivate, TPU film, process time 60 min): 0,114

NCCOc1ccc(/C=C/C(=O)CC(=O)/C=C/c2ccc(OCCN)cc2)cc1 [F-64a]
Imprägnierung / Färbung der Folie ([3]; 2K-System Beispiel 6a (Aceton/Isopropanol)): schwache Gelb- bzw. Blaufärbung der Folie
Abreiben / Auswaschen der Färbung ([3]; 2K-System Beispiel 6a): weder mit einem feuchten Schwamm abreiben noch mit Wasser auswaschen ließ
Imprägnierung / Färbung der Folie ([3]; 2K-System Beispiel 6b (Dimethylsuccinat/1,2-Propandiol/Tween 20)): schwache Gelb- bzw. Blaufärbung der Folie
Abreiben / Auswaschen der Färbung ([3]; 2K-System Beispiel 6b): weder mit einem feuchten Schwamm abreiben noch mit Wasser auswaschen ließ
Abs. 10 min [1, 13]: 0,55
Verfärbung ([4]; 0,2 mm starke Polycarbonatfolien, 60 min Einwirkzeit): keine Verfärbung
Log10 Reduktion Hauptprobe (S.aureus ATCC 6538 [5]): 2,6 ± 1,7 log10

NCCCOC1=CC(=O)c2cccc3cccc1c23 [F-08]
Abs. 1 min [1, 9]: 0,003
Abs. 2 min [1, 10]: 0,015
Abs. 5 min [1, 11]: 0,016
Abs. 10 min [1, 12]: 0,023
Log10 Reduktion Hauptprobe (S.aureus ATCC 6538 [6]; Beispiel 14, TPU film, Rezeptur 1 (nach Beispiel 1), 1 mM photocatalyst in impregnation solution, light 20mW/cm2 10min): 4,0 ± 0,3 log10

O=C1C=Cc2cc(S(=O)(=O)O)cc3cccc1c23 [F-01b]
Abs. 10 min [1, 8]: 0,008
Abs. 30 min [1, 8]: 0,011
Abs. 60 min [1, 8]: 0,065

COCCC1=Cc2nc1ccc1[nH]c(cc1CCOC)c1nc(c(OCCC(NC(=O)OC(C)(C)C)C(=O)O)cc3[nH]c2cc3CCOC)C(CCOC)=C1 (stereo not shown) [F-78b]
Abs. 10 min [1, 7]: 0,670

COc1cc(/C=C/C(=O)CC(=O)/C=C/c2cc(Br)c(OCCN)c(OC)c2)cc(Br)c1OCCN [F-65]
Abs. 1 min [1, 13]: 0,08
Abs. 10 min [1, 13]: 0,87
Log10 Reduktion Hauptprobe (S.aureus ATCC 6538 [5]): 1,3 ± 0,1 log10

CC(Oc1ccc(OCC2=Cc3cccc4cccc(c34)C2=O)cc1)C(=O)O (stereo not shown) [F-20a]
Abs. 1 min [1, 9]: 0,020
Abs. 2 min [1, 10]: 0,014
Abs. 5 min [1, 11]: 0,020
Abs. 10 min [1, 12]: 0,035

O=C1C(S(=O)(=O)O)=Cc2cccc3cccc1c23 [F-01a]
Log10 Reduktion Hauptprobe (S.aureus ATCC 6538 [5]): 1,4 ± 0,4 log10

O=C1C(COc2ccc(O)cc2)=Cc2cccc3cccc1c23 [F-12]
Abs. 1 min [1, 9]: 0,108
Abs. 2 min [1, 10]: 0,349
Abs. 5 min [1, 11]: 0,411
Abs. 10 min [1, 12]: >1

NCCOc1ccc2c3c(cccc13)C=CC2=O [F-09]
Abs. 1 min [1, 9]: 0,227
Abs. 2 min [1, 10]: 0,158
Abs. 5 min [1, 11]: 0,123
Abs. 10 min [1, 12]: 0,263

NCCOc1ccc(/C=C/C(=O)C(C(=O)/C=C/c2ccc(OCCN)cc2)c2ccccc2)cc1 [F-64c]
Abs. 5 min [1, 13]: 0,61
Abs. 10 min [1, 13]: >1

COC(=O)C(C)Oc1ccc(OCC2=Cc3cccc4cccc(c34)C2=O)cc1 (stereo not shown) [F-19a]
Abs. 1 min [1, 9]: >1
Abs. 2 min [1, 10]: >1
Abs. 5 min [1, 11]: >1
Abs. 10 min [1, 12]: >1

O=C1C(Cl)=Cc2ccc(NCCCO)c3cccc1c23 [2-Chloro-6-(3-hydroxypropylamino)-1-phenalenon, reference compound]
photodynamische Inaktivierung von S.aureus gegenüber den Kontrollen (S.aureus ATCC 6538 [6]; TPU Folien dyed with the fluorescent dye (Beispiel 25)): keine photodynamische Inaktivierung
Färbung der Folie ([4]; TPU Folien, 30 min Einwirkzeit): homogen pink gefärbte Folien
Entfernbarkeit der Färbung ([4]; TPU Folien, Abreiben mit feuchtem Tuch, Waschen mit Wasser): weder durch Abreiben mit einem feuchten Tuch noch durch Waschen mit Wasser entfernt
